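Exposure lasted 48 hours, with cells grown in 96-well plates and compounds tested at five concentrations. TGI denotes the concentration required for complete inhibition of growth.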
Columns and labels:
Assay in all cases: inhibition of tumour cell growth, NCI panel, 48 h
K-562 leukemia = test system: K-562 leukemia
DU-145 prostate = test system: DU-145 prostate
SF-295 CNS = test system: SF-295 CNS
MDA-MB-435 = test system: MDA-MB-435
EKVX NSCLC = test system: EKVX NSCLC
RXF 393 renal = test system: RXF 393 renal
HOP-92 NSCLC = test system: HOP-92 NSCLC
HOP-62 NSCLC = test system: HOP-62 NSCLC
786-0 renal = test system: 786-0 renal
HS 578T breast = test system: HS 578T breast
MCF7 breast = test system: MCF7 breast
CCRF-CEM leukemia = test system: CCRF-CEM leukemia
T-47D breast = test system: T-47D breast
SK-MEL-5 melanoma = test system: SK-MEL-5 melanoma
COLO 205 colon = test system: COLO 205 colon
MOLT-4 leukemia = test system: MOLT-4 leukemia
PC-3 prostate = test system: PC-3 prostate
RPMI-8226 leukemia = test system: RPMI-8226 leukemia
SK-MEL-28 melanoma = test system: SK-MEL-28 melanoma
UACC-257 melanoma = test system: UACC-257 melanoma
SNB-75 CNS = test system: SNB-75 CNS
CAKI-1 renal = test system: CAKI-1 renal
MDA-MB-231 breast = test system: MDA-MB-231 breast
SNB-19 CNS = test system: SNB-19 CNS
NCI-H226 lung = test system: NCI-H226 lung
IGROV1 ovarian = test system: IGROV1 ovarian
NCI/ADR-RES ovarian = test system: NCI/ADR-RES ovarian
SK-OV-3 ovarian = test system: SK-OV-3 ovarian
SR leukemia = test system: SR leukemia
HT29 colon = test system: HT29 colon
SF-539 CNS = test system: SF-539 CNS
NCI-H460 lung = test system: NCI-H460 lung
TK-10 renal = test system: TK-10 renal
LOX IMVI melanoma = test system: LOX IMVI melanoma
SW-620 colon = test system: SW-620 colon
BT-549 breast = test system: BT-549 breast
SF-268 CNS = test system: SF-268 CNS
OVCAR-8 ovarian = test system: OVCAR-8 ovarian
HCC-2998 colon = test system: HCC-2998 colon
HCT-116 colon = test system: HCT-116 colon
OVCAR-4 ovarian = test system: OVCAR-4 ovarian
UO-31 renal = test system: UO-31 renal
NCI-H23 lung = test system: NCI-H23 lung
HL-60(TB) leukemia = test system: HL-60(TB) leukemia
ACHN renal = test system: ACHN renal
U251 CNS = test system: U251 CNS
KM12 colon = test system: KM12 colon
UACC-62 melanoma = test system: UACC-62 melanoma
SK-MEL-2 melanoma = test system: SK-MEL-2 melanoma
A498 renal = test system: A498 renal
HCT-15 colon = test system: HCT-15 colon
M14 melanoma = test system: M14 melanoma
MALME-3M melanoma = test system: MALME-3M melanoma
OVCAR-5 ovarian = test system: OVCAR-5 ovarian
NCI-H522 lung = test system: NCI-H522 lung
A549 NSCLC = test system: A549 NSCLC
SN12C renal = test system: SN12C renal

Measured: TGI

Cc1cccc(NC(=S)Nc2ccc([N+](=O)[O-])cc2)n1
not listed: MALME-3M melanoma | OVCAR-5 ovarian | NCI-H522 lung | A549 NSCLC | SN12C renal
> 100 µM: all other assays above

COc1ccc(CC2c3cc(OC)c(OC)c(OC)c3CC[N+]2(C)C)cc1Oc1ccc(CC2c3cc4c(c(OC)c3CC[N+]2(C)C)OCO4)cc1 (stereo not given)
not listed: RXF 393 renal | HOP-62 NSCLC | RPMI-8226 leukemia | SF-539 CNS
> 100 µM: all other assays above

Reference: PubChem BioAssay (NCI)
